Tests used:
[1] = system: HCC1954 (BRCA1 WT) cell line; assay: Viability assay in BRCA1 WT cell line HCC1954; assay type: cell-based; settings: Homo sapiens, read-out: HCC 1954 IC50 rel IC50
From the text: (§1) Table 1 also indicates IC50 values in a viability assay for a non-isogenic pair of BRCA1 mutant (column 5—MDA-MB-436) and BRCA1 WT (column 6—HCC1954) cell lines. These values indicate the effect of treatment with compound on cell survival.

monoubiquitinated PCNA = assay: AlphaLISA assay measuring monoubiquitinated PCNA in MDA-MB-436; assay type: cell-based; settings: Homo sapiens, read-out: Alpha LISA IC50
From the text: Table 1 also indicates IC50 values for exemplary compounds in an AlphaLISA assay measuring monoubiquitinated PCNA in a BRCA1 mutant cell line (MDA-MB-436; column 7).

[2] = system: MDA-MB-436 (BRCA1 mutant) cell line; assay: Viability assay in BRCA1 mutant cell line MDA-MB-436; assay type: cell-based; settings: Homo sapiens, MDA-MB-436, viability, BRCA1 mutant MDA-MB-436; read-out: MDA-MB-436 rel IC50
From the text: as §1

USP1-UAF1 = USP1-UAF1 (Homo sapiens, UniProt O94782); assay: Ubiquitin Rhodamine assay for USP1-UAF1 activity; assay type: biochemical
USP1-UAF1, sequence (O94782 whole entry): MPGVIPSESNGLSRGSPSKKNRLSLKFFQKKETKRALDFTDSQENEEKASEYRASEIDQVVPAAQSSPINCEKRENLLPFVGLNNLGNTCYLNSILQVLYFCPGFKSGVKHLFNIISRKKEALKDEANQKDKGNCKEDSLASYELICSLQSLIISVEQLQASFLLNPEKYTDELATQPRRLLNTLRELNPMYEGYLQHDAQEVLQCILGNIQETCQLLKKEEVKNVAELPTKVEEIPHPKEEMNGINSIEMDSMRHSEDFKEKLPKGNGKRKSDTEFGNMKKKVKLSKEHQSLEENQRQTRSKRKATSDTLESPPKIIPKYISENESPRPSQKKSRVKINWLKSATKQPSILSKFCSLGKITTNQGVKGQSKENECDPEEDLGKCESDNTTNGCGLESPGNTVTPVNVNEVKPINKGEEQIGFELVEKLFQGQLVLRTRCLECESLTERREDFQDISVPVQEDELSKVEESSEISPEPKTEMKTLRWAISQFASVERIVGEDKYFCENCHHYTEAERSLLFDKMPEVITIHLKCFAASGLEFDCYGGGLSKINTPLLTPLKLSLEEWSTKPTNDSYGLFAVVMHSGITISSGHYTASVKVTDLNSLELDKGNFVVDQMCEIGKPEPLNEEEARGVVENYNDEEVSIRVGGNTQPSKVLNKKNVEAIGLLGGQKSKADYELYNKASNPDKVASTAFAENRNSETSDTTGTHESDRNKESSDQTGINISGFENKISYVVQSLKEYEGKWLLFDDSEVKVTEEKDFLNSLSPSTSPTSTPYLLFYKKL
USP1-UAF1, sequence (Q8TAF3 whole entry partner): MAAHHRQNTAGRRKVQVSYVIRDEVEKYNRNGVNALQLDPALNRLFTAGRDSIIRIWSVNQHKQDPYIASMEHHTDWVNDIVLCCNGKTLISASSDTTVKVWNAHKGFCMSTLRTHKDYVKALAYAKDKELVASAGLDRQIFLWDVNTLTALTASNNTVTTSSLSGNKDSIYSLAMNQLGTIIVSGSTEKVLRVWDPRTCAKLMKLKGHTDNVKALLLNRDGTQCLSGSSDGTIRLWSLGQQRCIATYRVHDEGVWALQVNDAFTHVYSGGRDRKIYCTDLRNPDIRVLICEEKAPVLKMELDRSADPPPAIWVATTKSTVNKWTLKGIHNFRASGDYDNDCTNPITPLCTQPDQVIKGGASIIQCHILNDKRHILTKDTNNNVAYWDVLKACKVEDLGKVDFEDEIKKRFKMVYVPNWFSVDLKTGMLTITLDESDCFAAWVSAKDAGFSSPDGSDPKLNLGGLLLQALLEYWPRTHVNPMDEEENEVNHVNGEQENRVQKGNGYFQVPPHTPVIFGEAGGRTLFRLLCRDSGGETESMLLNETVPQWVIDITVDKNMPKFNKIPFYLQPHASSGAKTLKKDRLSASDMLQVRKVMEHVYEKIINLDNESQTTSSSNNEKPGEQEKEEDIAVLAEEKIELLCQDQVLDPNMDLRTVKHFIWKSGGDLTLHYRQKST
Method: Certain compounds of the disclosure were assessed for USP1-UAF1 activity in a Ubiquitin Rhodamine assay as described in Example 135.

Row | SMILES | IC50 [1] [nM] | IC50 (monoubiquitinated PCNA) [nM] | IC50 [2] [nM] | IC50 (USP1-UAF1) [nM]
1 | COc1ncnc(C2CC2(F)F)c1-c1ncc2[nH]cc(Cc3ccc(-c4nc(C(F)(F)F)cn4C)cc3)c2n1 (stereo not shown) [Compound 147, 2-[4-(2,2-difluorocyclopropyl)-6-methoxy-pyrimidin-5-yl]-7-[[4-[1-methyl-4-(trifluoromethyl)imidazol-2-yl]phenyl]methyl]-5H-pyrrolo[3,2-d]pyrimidine] | ≥ 10000 | < 100 | < 100 | < 30
2 | COc1ncnc(C2CC2)c1-c1nc(C)c2[nH]cc(Cc3ccc(-c4nc(C(F)(F)F)cn4C)cc3)c2n1 [Compound 148, 2-(4-cyclopropyl-6-methoxy-pyrimidin-5-yl)-4-methyl-7-[[4-[1-methyl-4-(trifluoromethyl)imidazol-2-yl]phenyl]methyl]-5H-pyrrolo[3,2-d]pyrimidine] | ≥ 10000 | < 100 | < 100 | < 30
3 | Cn1cc(C(F)(F)F)nc1-c1ccc(Cc2c[nH]c3cnc(-c4c(Cl)ccnc4C4CC4)nc23)cc1 [Compound 150, 2-(4-chloro-2-cyclopropylpyridin-3-yl)-7-(4-(1-methyl-4-(trifluoromethyl)-1H-imidazol-2-yl)benzyl)-5H-pyrrolo[3,2-d]pyrimidine] | 250 to 10000 | < 100 | < 100 | < 30
4 | COc1nccc(C2CC2)c1-c1ncc2[nH]cc(Cc3ccc(-c4nc(C(F)(F)F)cn4C)cc3)c2n1 [Compound 152, 2-(4-cyclopropyl-2-methoxy-3-pyridyl)-7-[[4-[1-methyl-4-(trifluoromethyl)imidazol-2-yl]phenyl]methyl]-5H-pyrrolo[3,2-d]pyrimidine] | ≥ 10000 | < 100 | < 100 | < 30
5 | COc1ncnc(C2CC2)c1-c1ncc2[nH]cc(Cc3ccc(-c4nc(C(F)(F)F)cn4C)c(F)c3)c2n1 [Compound 153, 2-(4-cyclopropyl-6-methoxy-pyrimidin-5-yl)-7-[[3-fluoro-4-[1-methyl-4-(trifluoromethyl)imidazol-2-yl]phenyl]methyl]-5H-pyrrolo[3,2-d]pyrimidine] | ≥ 10000 | < 100 | < 100 | < 30
6 | COc1ncnc(C2CC2)c1-c1ncc2[nH]cc(Cc3ccc(-c4nc(C(F)(F)F)cn4C4COC4)cc3)c2n1 [Compound 154, 2-(4-cyclopropyl-6-methoxy-pyrimidin-5-yl)-7-[[4-[1-(oxetan-3-yl)-4-(trifluoromethyl)imidazol-2-yl]phenyl]methyl]-5H-pyrrolo[3,2-d]pyrimidine] | ≥ 10000 | 100 to 250 | < 100 | 30 to 100
7 | CNCc1[nH]c2cnc(-c3c(OC)ncnc3C3CC3)nc2c1Cc1ccc(-c2nc(C(F)(F)F)cn2C)cc1 [Compound 159, 1-[2-(4-cyclopropyl-6-methoxy-pyrimidin-5-yl)-7-[[4-[1-methyl-4-(trifluoromethyl)imidazol-2-yl]phenyl]methyl]-5H-pyrrolo[3,2-d]pyrimidin-6-yl]-N-methyl-methanamine] | 250 to 10000 | 100 to 250 | 100 to 250 | 100 to 10000
8 | COc1ncnc(C2CC2)c1-c1nc(OC)c2[nH]cc(Cc3ccc(-c4nc(C(F)(F)F)cn4C)cc3)c2n1 [Compound 160] | 250 to 10000 | 250 to 10000 | 100 to 250 | 100 to 10000
9 | COc1ccnc(C2CC2)c1-c1ncc2[nH]cc(Cc3ccc(-c4nc(C(F)(F)F)cn4C)cc3)c2n1 [Compound 161] | ≥ 10000 | 100 to 250 | < 100 | 30 to 100
10 | COc1ncnc(C2CC2)c1-c1ncc2[nH]cc(Cc3cc(F)c(-n4nc(C(F)(F)F)cc4C)c(F)c3)c2n1 [Compound 162, 2-(4-cyclopropyl-6-methoxy-pyrimidin-5-yl)-7-[[3,5-difluoro-4-[5-methyl-3-(trifluoromethyl)pyrazol-1-yl]phenyl]methyl]-5H-pyrrolo[3,2-d]pyrimidine] | ≥ 10000 | < 100 | < 100 | < 30
